The text below walks through data of patent publication US9956426B2, “Upconverting nanoparticles” (priority 2015, dated 2018).

In one series the test system is HeLa cells. The conditions noted are these: 100 μg/mL, CW 980 nm 0.35 W/cm^2. Here is the method:
As a model to examine the efficacy of 5-aminolevulinic acid-conjugated upconverting particles as described herein, particles prepared as described herein (having an 80 mol % Yb content), a 3-(4,5-dimethylthiazol-2-yl)-2,5-diphenyltetrazolium bromide (MTT) proliferation assay was conducted to determine inhibition of cell proliferation using photodynamic therapy with the nanoparticles prepared as described herein. In the cell proliferation assay, HeLa cells were exposed to 5-aminolevulinic acid-conjugated upconverting particles and various controls (all 100 μg/mL) for 4 h and the cells were then irradiated by irradiation of continuous wave 980 nm light at 1 W/cm^2. The results of the assay are shown in FIG. 8, which depicts cell viability as a function of irradiation time.
Then, impact of the lanthanide-doped upconverting nanoparticles on 5-ALA-induced photodynamic therapy was evaluated. […] Cells exposed to these control nanoparticles were irradiated at a biocompatible low power density of 0.35 W/cm^2.
A 96-well microtiter plate seeded with 1×10^4 HeLa cells/well was incubated overnight at 37° C. with 5% CO2. Cells were subsequently exposed to (i) 5-aminolevulinic acid functionalized upconverting nanoparticles comprising 80 mol % ytterbium (ALA-UCNPs, 100 μg/mL), (ii) hydrazide functionalized upconverting nanoparticles (no 5-ALA) (Hyd-UCNPs, 100 μg/mL), (iii) free 5-aminolevulinic acid (ALA, 100 μg/mL) or (iv) PBS (growth medium control) and then irradiated with CW 980 nm laser diode at 1 W/cm^2 for 0, 5, 10, or 20 min. After overnight incubation, cells were labeled with 12 mM solution of MTT in PBS for 4 h. Finally, the media was aspirated and replaced with 50 μL DMSO and cell viability was quantified by formazan absorption determined by a plate reader at 540 nm.
FIG. 8: Plots showing the viability of HeLa cells irradiated with CW 980 nm light at 1 W/cm^2 power density.
FIG. 9: Plots showing the viability of HeLa cells irradiated with CW 980 nm light at 0.35 W/cm^2 power density. […]

The nature of series [1]: 5-Aminolevulinic acid loading determination by HPLC. The series is classed as physicochemical. The note with it: HPLC of supernatants, back-calculation. From the text:
FT-IR spectral analysis confirmed that the conjugation of 5-ALA to the nanoparticles was via a hydrazone linkage as shown in panels (d) and (e) of FIG. 7, which show (d) full and (e) detailed spectra for polyacrylic acid-coated upconverting nanoparticles, (PAA-UCNPs), hydrazide-functionalized upconverting nanoparticles (Hyd-UCNPs) and 5-ALA-conjugated upconverting nanoparticles. On the spectrum for Poly(acrylic) acid-functionalized UCNPs (PAA-UCNPs), the peak at 1636 cm^−1 is attributed to the resonance of the carboxyl groups. […]
FT-IR spectra were recorded on a Nicolet Nexus FT-IR spectrometer, using the SMART iTR™ for ATR measurements. The upconversion photoluminescence spectra were measured by a SPEX FluoroMax®-3 spectrofluorimeter (Horiba) (spectral resolution of 1 nm, emission slit of 5 nm, and integral period of 0.1 s) excited at 980 nm using a fiber-coupled laser diode introduced to the sample chamber of the spectrofluorimeter. […] The size distribution of the samples was determined by dynamic light scattering (DLS) equipped with a Zetasizer Nano-ZS (He—Ne laser wavelength at 633 nm) and an auto-titrator (Malvern Instruments, Malvern, UK). The absorbance for the MTT experiment and the fluorescence for DCFDA staining experiment was found using a microplate reader (Molecular Devices Co., Menlo Park, Calif.). […]

As to “β-NaYF4:Yb(20%),Er(2%)@β-NaYF4 ALA [reference compound]”, the cell killing result with HeLa cells is on record as “no cell killing”. In addition, the “loading capacity for 5-ALA” value in series [1] was approximately 4.5 µmol/mg.
